Consider 7 cell lines from the supplement of paper PMC10307832.

Holding throughout (assay): relative viability (nuclei count vs DMSO), 5 days (fraction); higher = more cells survive
Compound in the experiment “VE-821 + Crizotinib”: CS(=O)(=O)c1ccc(-c2cnc(N)c(C(=O)Nc3ccccc3)n2)cc1 [VE-821] + C[C@@H](Oc1cc(-c2cnn(C3CCNCC3)c2)cnc1N)c1c(Cl)ccc(F)c1Cl [Crizotinib] (partner 1 µM)
A digest of the protocol:
(§1)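 Each reported value is a median over duplicate plates. It expresses relative viability: treated-well nuclei count divided by vehicle-well nuclei count. Lung cancer cell lines in 1536-well plates were dosed by pin tool a day after seeding, alone with one drug or with a fixed anchor-drug dose plus five library-drug doses (not always all listed) in √10 steps, and nuclei were counted after 5 days.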

Compound in the experiment “Vismodegib + Lapatinib”: CS(=O)(=O)c1ccc(C(=O)Nc2ccc(Cl)c(-c3ccccn3)c2)c(Cl)c1 [Vismodegib] + CS(=O)(=O)CCNCc1ccc(-c2ccc3ncnc(Nc4ccc(OCc5cccc(F)c5)c(Cl)c4)c3c2)o1 [Lapatinib] (partner 2 µM)
Summed up: as §1

Compound in the experiment “Ruxolitinib + Linsitinib”: N#CC[C@H](C1CCCC1)n1cc(-c2ncnc3[nH]ccc23)cn1 [Ruxolitinib] + C[C@]1(O)C[C@@H](c2nc(-c3ccc4ccc(-c5ccccc5)nc4c3)c3c(N)nccn32)C1 [Linsitinib] (partner 1 µM)
A digest of the protocol:
as §1

Compound in the experiment “Ruxolitinib + Tozasertib”: N#CC[C@H](C1CCCC1)n1cc(-c2ncnc3[nH]ccc23)cn1 [Ruxolitinib] + Cc1cc(Nc2cc(N3CCN(C)CC3)nc(Sc3ccc(NC(=O)C4CC4)cc3)n2)n[nH]1 [Tozasertib] (partner 0.1 µM)
A digest of the protocol:
as §1

On to NCI-H2085, for which the relative viability with VE-821 + Crizotinib (first compound 0.08 µM) was 1.02; in the experiment with VE-821 + Crizotinib (first compound 0.253 µM), 0.755; with VE-821 + Crizotinib (first compound 0.8 µM), 0.824; with VE-821 + Crizotinib (first compound 2.53 µM), 0.954; with VE-821 + Crizotinib (first compound 8 µM), 0.755; in the experiment with Vismodegib + Lapatinib (first compound 0.08 µM), 0.764. Also, the relative viability in the experiment with Vismodegib + Lapatinib (first compound 0.253 µM) amounted to 0.809; with Vismodegib + Lapatinib (first compound 0.8 µM), 0.71; in the experiment with Vismodegib + Lapatinib (first compound 2.53 µM), 0.751; with Vismodegib + Lapatinib (first compound 8 µM), 0.81; with Ruxolitinib + Linsitinib (first compound 0.08 µM), 0.875; with Ruxolitinib + Linsitinib (first compound 0.253 µM) it was 0.888. The relative viability with Ruxolitinib + Linsitinib (first compound 0.8 µM) is 1.01; with Ruxolitinib + Linsitinib (first compound 2.53 µM) it was 0.836; with Ruxolitinib + Linsitinib (first compound 8 µM), 0.685; in the experiment with Ruxolitinib + Tozasertib (first compound 0.08 µM), 0.882; in the experiment with Ruxolitinib + Tozasertib (first compound 0.253 µM), 0.765; with Ruxolitinib + Tozasertib (first compound 0.8 µM), 0.886. Further, the relative viability with Ruxolitinib + Tozasertib (first compound 2.53 µM) was found to be 0.77; with Ruxolitinib + Tozasertib (first compound 8 µM) it was 0.688.

Regarding NCI-H2087, the relative viability with VE-821 + Crizotinib (first compound 0.08 µM) is 1.21; with VE-821 + Crizotinib (first compound 0.253 µM), 0.891; with VE-821 + Crizotinib (first compound 0.8 µM), 1; with VE-821 + Crizotinib (first compound 2.53 µM), 0.902; with VE-821 + Crizotinib (first compound 8 µM), 0.93; in the experiment with Vismodegib + Lapatinib (first compound 0.08 µM) it was 0.872. In addition, the relative viability stood at 0.856 with Vismodegib + Lapatinib (first compound 0.253 µM); 1.12 with Vismodegib + Lapatinib (first compound 0.8 µM); 1.07 with Vismodegib + Lapatinib (first compound 2.53 µM); 0.863 with Vismodegib + Lapatinib (first compound 8 µM); 0.861 with Ruxolitinib + Linsitinib (first compound 0.08 µM); 1.08 with Ruxolitinib + Linsitinib (first compound 0.253 µM). The relative viability with Ruxolitinib + Linsitinib (first compound 0.8 µM) was determined as 0.983; in the experiment with Ruxolitinib + Linsitinib (first compound 2.53 µM), 0.692; in the experiment with Ruxolitinib + Linsitinib (first compound 8 µM) it was 0.638; in the experiment with Ruxolitinib + Tozasertib (first compound 0.08 µM), 0.256; with Ruxolitinib + Tozasertib (first compound 0.253 µM), 0.229; with Ruxolitinib + Tozasertib (first compound 0.8 µM) it was 0.24. In addition, the figures for the relative viability in the experiment with Ruxolitinib + Tozasertib (first compound 2.53 µM) and with Ruxolitinib + Tozasertib (first compound 8 µM) were 0.276 and 0.299, respectively.

For the cell line NCI-H2126, the relative viability with VE-821 + Crizotinib (first compound 0.08 µM) is 1.02; with VE-821 + Crizotinib (first compound 0.253 µM), 0.954; with VE-821 + Crizotinib (first compound 0.8 µM), 0.954; in the experiment with VE-821 + Crizotinib (first compound 2.53 µM), 0.965; in the experiment with VE-821 + Crizotinib (first compound 8 µM) it was 0.859; in the experiment with Vismodegib + Lapatinib (first compound 0.08 µM), 0.725. Also, the relative viability in the experiment with Vismodegib + Lapatinib (first compound 0.253 µM) stood at 0.746; in the experiment with Vismodegib + Lapatinib (first compound 0.8 µM) it was 0.701; with Vismodegib + Lapatinib (first compound 2.53 µM) it was 0.616; with Vismodegib + Lapatinib (first compound 8 µM), 0.729; with Ruxolitinib + Linsitinib (first compound 0.08 µM), 0.701; with Ruxolitinib + Linsitinib (first compound 0.253 µM), 0.725. For the same cell line, the relative viability with Ruxolitinib + Linsitinib (first compound 0.8 µM) came to 0.731; with Ruxolitinib + Linsitinib (first compound 2.53 µM), 0.744; with Ruxolitinib + Linsitinib (first compound 8 µM) it was 0.702; in the experiment with Ruxolitinib + Tozasertib (first compound 0.08 µM) it was 0.864; with Ruxolitinib + Tozasertib (first compound 0.253 µM) it was 0.848; in the experiment with Ruxolitinib + Tozasertib (first compound 0.8 µM) it was 1.1. Besides, the relative viability with Ruxolitinib + Tozasertib (first compound 2.53 µM) came out at 0.975; with Ruxolitinib + Tozasertib (first compound 8 µM), 0.838.

Turning to NCI-H2228, the relative viability was 0.479 in the experiment with VE-821 + Crizotinib (first compound 0.08 µM); 0.459 with VE-821 + Crizotinib (first compound 0.253 µM); 0.414 with VE-821 + Crizotinib (first compound 0.8 µM); 0.37 with VE-821 + Crizotinib (first compound 2.53 µM); 0.35 in the experiment with VE-821 + Crizotinib (first compound 8 µM); 1.16 in the experiment with Vismodegib + Lapatinib (first compound 0.08 µM). The relative viability stood at 1.19 with Vismodegib + Lapatinib (first compound 0.253 µM); 1.03 with Vismodegib + Lapatinib (first compound 0.8 µM); 1.05 in the experiment with Vismodegib + Lapatinib (first compound 2.53 µM); 1.02 with Vismodegib + Lapatinib (first compound 8 µM); 0.796 with Ruxolitinib + Linsitinib (first compound 0.08 µM); 0.686 with Ruxolitinib + Linsitinib (first compound 0.253 µM). For the same cell line, the relative viability with Ruxolitinib + Linsitinib (first compound 0.8 µM) was found to be 0.85; with Ruxolitinib + Linsitinib (first compound 2.53 µM) it was 0.626; with Ruxolitinib + Linsitinib (first compound 8 µM), 0.559; with Ruxolitinib + Tozasertib (first compound 0.08 µM) it was 0.32; in the experiment with Ruxolitinib + Tozasertib (first compound 0.253 µM), 0.33; in the experiment with Ruxolitinib + Tozasertib (first compound 0.8 µM), 0.257. The values for the relative viability in the experiment with Ruxolitinib + Tozasertib (first compound 2.53 µM) and with Ruxolitinib + Tozasertib (first compound 8 µM) were 0.314 and 0.208, respectively.

For the cell line NCI-H2347, the relative viability in the experiment with VE-821 + Crizotinib (first compound 0.08 µM) turned out to be 0.723; with VE-821 + Crizotinib (first compound 0.253 µM) it was 0.794; with VE-821 + Crizotinib (first compound 0.8 µM), 0.684; with VE-821 + Crizotinib (first compound 2.53 µM), 0.983; with VE-821 + Crizotinib (first compound 8 µM), 0.713; with Vismodegib + Lapatinib (first compound 0.08 µM), 0.962. The relative viability in the experiment with Vismodegib + Lapatinib (first compound 0.253 µM) stood at 0.989; in the experiment with Vismodegib + Lapatinib (first compound 0.8 µM), 0.901; with Vismodegib + Lapatinib (first compound 2.53 µM), 0.808; in the experiment with Vismodegib + Lapatinib (first compound 8 µM), 0.938; with Ruxolitinib + Linsitinib (first compound 0.08 µM), 0.893; with Ruxolitinib + Linsitinib (first compound 0.253 µM), 0.939. Also, the relative viability with Ruxolitinib + Linsitinib (first compound 0.8 µM) amounted to 1.05; with Ruxolitinib + Linsitinib (first compound 2.53 µM), 0.886; with Ruxolitinib + Linsitinib (first compound 8 µM), 0.965; with Ruxolitinib + Tozasertib (first compound 0.08 µM), 0.612; in the experiment with Ruxolitinib + Tozasertib (first compound 0.253 µM) it was 0.561; with Ruxolitinib + Tozasertib (first compound 0.8 µM) it was 0.554. Besides, the results for the relative viability with Ruxolitinib + Tozasertib (first compound 2.53 µM) and with Ruxolitinib + Tozasertib (first compound 8 µM) were 0.725 and 0.701, respectively.

Regarding NCI-H2405, the relative viability was determined as 1.01 with VE-821 + Crizotinib (first compound 0.08 µM); 0.81 in the experiment with VE-821 + Crizotinib (first compound 0.253 µM); 0.776 with VE-821 + Crizotinib (first compound 0.8 µM); 0.924 with VE-821 + Crizotinib (first compound 2.53 µM); 0.788 with VE-821 + Crizotinib (first compound 8 µM); 1.09 with Vismodegib + Lapatinib (first compound 0.253 µM). For the same cell line, the relative viability in the experiment with Vismodegib + Lapatinib (first compound 0.8 µM) was found to be 0.937; with Vismodegib + Lapatinib (first compound 2.53 µM) it was 0.913; with Vismodegib + Lapatinib (first compound 8 µM), 1.11; with Ruxolitinib + Linsitinib (first compound 0.253 µM), 0.779; with Ruxolitinib + Linsitinib (first compound 0.8 µM), 1.1; with Ruxolitinib + Linsitinib (first compound 2.53 µM) it was 0.528. Moreover, the relative viability was 0.632 with Ruxolitinib + Linsitinib (first compound 8 µM); 0.787 in the experiment with Ruxolitinib + Tozasertib (first compound 0.253 µM); 0.833 in the experiment with Ruxolitinib + Tozasertib (first compound 0.8 µM); 0.758 in the experiment with Ruxolitinib + Tozasertib (first compound 2.53 µM); 0.604 with Ruxolitinib + Tozasertib (first compound 8 µM).

In the case of NCI-H3122, the relative viability with VE-821 + Crizotinib (first compound 0.08 µM) worked out at 0.283; in the experiment with VE-821 + Crizotinib (first compound 0.253 µM), 0.281; in the experiment with VE-821 + Crizotinib (first compound 0.8 µM), 0.32; in the experiment with VE-821 + Crizotinib (first compound 2.53 µM) it was 0.356; in the experiment with VE-821 + Crizotinib (first compound 8 µM), 0.331; with Vismodegib + Lapatinib (first compound 0.08 µM), 0.987. In addition, the relative viability was found to be 1.06 with Vismodegib + Lapatinib (first compound 0.253 µM); 0.982 with Vismodegib + Lapatinib (first compound 0.8 µM); 0.897 with Vismodegib + Lapatinib (first compound 2.53 µM); 0.936 in the experiment with Vismodegib + Lapatinib (first compound 8 µM); 1.09 with Ruxolitinib + Linsitinib (first compound 0.08 µM); 1.06 with Ruxolitinib + Linsitinib (first compound 0.253 µM). Moreover, the relative viability with Ruxolitinib + Linsitinib (first compound 0.8 µM) was found to be 1.02; with Ruxolitinib + Linsitinib (first compound 2.53 µM), 0.815; in the experiment with Ruxolitinib + Linsitinib (first compound 8 µM), 1.04; with Ruxolitinib + Tozasertib (first compound 0.253 µM), 0.35; in the experiment with Ruxolitinib + Tozasertib (first compound 0.8 µM), 0.493; with Ruxolitinib + Tozasertib (first compound 2.53 µM) it was 0.439. For the same cell line, the relative viability with Ruxolitinib + Tozasertib (first compound 8 µM) is 0.441.
